# Measured values taken from PubChem BioAssay AID1963858 (Molecular Pharmacology Branch, DTP, NCI, 2024).
# Tested on: HOP-62 multicell spheroids with HUVEC/MSC, viability
# Assay: Anticancer human tumor HOP-62 cell line growth inhibition [KRAS2];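 note: viability read after a week of compound exposure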;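 for viability, T/C: 100% = DMSO vehicle-treated spheroids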
# Settings: for IC50: curve of first compound; for viability, T/C: stronger effect = lower value
# In short: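 KRAS-mutant tumor cells were grown as spheroids with HUVEC endothelial cells and human MSCs as stroma. Targeted agents were tested alone and with KRAS pathway inhibitors. Doses started at or near clinical Cmax, or 10 microM, descending half-log.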
# [1] = second compound 0.1 µM, first compound 0.0316 µM
# [2] = second compound 0.1 µM, first compound 0.1 µM
# [3] = second compound 0.1 µM, first compound 0.316 µM
# [4] = second compound 0.1 µM, first compound 1 µM
# [5] = second compound 0.1 µM, first compound 3.16 µM
# [6] = second compound 0.1 µM, first compound 10 µM
# [7] = second compound 0.316 µM, first compound 0.0316 µM
# [8] = second compound 0.316 µM, first compound 0.1 µM
# [9] = second compound 0.316 µM, first compound 0.316 µM
# [10] = second compound 0.316 µM, first compound 1 µM
# [11] = second compound 0.316 µM, first compound 3.16 µM
# [12] = second compound 0.316 µM, first compound 10 µM
# [13] = second compound 1 µM, first compound 0.0316 µM
# [14] = second compound 1 µM, first compound 0.1 µM
# [15] = second compound 1 µM, first compound 0.316 µM
# [16] = second compound 1 µM, first compound 1 µM
# [17] = second compound 1 µM, first compound 3.16 µM
# [18] = second compound 1 µM, first compound 10 µM
# [19] = second compound 3.16 µM, first compound 0.0316 µM
# [20] = second compound 3.16 µM, first compound 0.1 µM
# [21] = second compound 3.16 µM, first compound 0.316 µM
# [22] = second compound 3.16 µM, first compound 1 µM
# [23] = second compound 3.16 µM, first compound 3.16 µM
# [24] = second compound 3.16 µM, first compound 10 µM
# [25] = second compound 10 µM, first compound 0.0316 µM
# [26] = second compound 10 µM, first compound 0.1 µM
# [27] = second compound 10 µM, first compound 0.316 µM
# [28] = second compound 10 µM, first compound 1 µM
# [29] = second compound 10 µM, first compound 3.16 µM
# [30] = second compound 10 µM, first compound 10 µM
compound,measurement,setting,value
CC(C)NCC(C(=O)N1CCN(c2ncnc3c2C(C)CC3O)CC1)c1ccc(Cl)cc1 (stereo not given) + COc1cc2nc(C)nc(NC(C)c3cc(N)cc(C(F)(F)F)c3)c2cc1OC1CCOC1,IC50,second compound 0.1 µM,0.649 µM
same,IC50,second compound 0.316 µM,0.412 µM
same,IC50,second compound 1 µM,0.222 µM
same,IC50,second compound 3.16 µM,0.416 µM
same,IC50,second compound 10 µM,< 0.0316 µM
same,"viability, T/C",[1],101%
same,"viability, T/C",[2],85.5%
same,"viability, T/C",[3],73%
same,"viability, T/C",[4],38.3%
same,"viability, T/C",[5],9.92%
same,"viability, T/C",[6],6.97%
same,"viability, T/C",[7],92.5%
same,"viability, T/C",[8],85.4%
same,"viability, T/C",[9],58.7%
same,"viability, T/C",[10],21.6%
same,"viability, T/C",[11],7.46%
same,"viability, T/C",[12],6.79%
same,"viability, T/C",[13],91%
same,"viability, T/C",[14],67.8%
same,"viability, T/C",[15],42.8%
same,"viability, T/C",[16],20%
same,"viability, T/C",[17],5.76%
same,"viability, T/C",[18],3.7%
same,"viability, T/C",[19],63.1%
same,"viability, T/C",[20],59.1%
same,"viability, T/C",[21],64%
same,"viability, T/C",[22],11.2%
same,"viability, T/C",[23],6.02%
same,"viability, T/C",[24],5.53%
same,"viability, T/C",[25],49.1%
same,"viability, T/C",[26],33.8%
same,"viability, T/C",[27],23.7%
same,"viability, T/C",[28],10.7%
same,"viability, T/C",[29],8.2%
same,"viability, T/C",[30],5.6%
CC(=O)Nc1cccc(-n2c(=O)n(C3CC3)c(=O)c3c(Nc4ccc(I)cc4F)n(C)c(=O)c(C)c32)c1 + CNCc1ccccc1-c1csc(C(C)Nc2nc(C)nc3cc(OC)c(OC)cc23)c1,IC50,second compound 0.1 µM,0.0043 µM
same,IC50,second compound 0.316 µM,0.00284 µM
same,IC50,second compound 1 µM,0.00232 µM
same,IC50,second compound 3.16 µM,< 0.0001 µM
same,IC50,second compound 10 µM,< 0.0001 µM
same,"viability, T/C","second compound 0.1 µM, first compound 0.0001 µM",104%
same,"viability, T/C","second compound 0.1 µM, first compound 0.000316 µM",97.2%
same,"viability, T/C","second compound 0.1 µM, first compound 0.001 µM",81.6%
same,"viability, T/C","second compound 0.1 µM, first compound 0.00316 µM",60.1%
same,"viability, T/C","second compound 0.1 µM, first compound 0.01 µM",28%
same,"viability, T/C",[1],27.4%
same,"viability, T/C","second compound 0.316 µM, first compound 0.0001 µM",106%
same,"viability, T/C","second compound 0.316 µM, first compound 0.000316 µM",97.4%
same,"viability, T/C","second compound 0.316 µM, first compound 0.001 µM",77%
same,"viability, T/C","second compound 0.316 µM, first compound 0.00316 µM",48%
same,"viability, T/C","second compound 0.316 µM, first compound 0.01 µM",30.1%
same,"viability, T/C",[7],29.9%
same,"viability, T/C","second compound 1 µM, first compound 0.0001 µM",91.2%
same,"viability, T/C","second compound 1 µM, first compound 0.000316 µM",92.8%
same,"viability, T/C","second compound 1 µM, first compound 0.001 µM",74.1%
same,"viability, T/C","second compound 1 µM, first compound 0.00316 µM",41.4%
same,"viability, T/C","second compound 1 µM, first compound 0.01 µM",26.8%
same,"viability, T/C",[13],25.7%
same,"viability, T/C","second compound 3.16 µM, first compound 0.0001 µM",7.87%
same,"viability, T/C","second compound 3.16 µM, first compound 0.000316 µM",0.24%
same,"viability, T/C","second compound 3.16 µM, first compound 0.001 µM",3.22%
same,"viability, T/C","second compound 3.16 µM, first compound 0.00316 µM",0.35%
same,"viability, T/C","second compound 3.16 µM, first compound 0.01 µM",0.07%
same,"viability, T/C",[19],0.24%
same,"viability, T/C","second compound 10 µM, first compound 0.0001 µM",0.13%
same,"viability, T/C","second compound 10 µM, first compound 0.000316 µM",0.15%
same,"viability, T/C","second compound 10 µM, first compound 0.001 µM",2.8%
same,"viability, T/C","second compound 10 µM, first compound 0.00316 µM",0.12%
same,"viability, T/C","second compound 10 µM, first compound 0.01 µM",2.27%
same,"viability, T/C",[25],0.31%
COc1cc2nccc(Oc3ccc(NC(=O)C4(C(=O)Nc5ccc(F)cc5)CC4)cc3)c2cc1OC + CC1OCC2(CCN(c3cnc(Sc4ccnc(N)c4Cl)c(N)n3)CC2)C1N,IC50,second compound 0.1 µM,7.77 µM
same,IC50,second compound 0.316 µM,2.26 µM
same,IC50,second compound 1 µM,0.0316 µM
same,IC50,second compound 3.16 µM,< 0.0316 µM
same,IC50,second compound 10 µM,< 0.0316 µM
same,"viability, T/C",[1],88.3%
same,"viability, T/C",[2],83%
same,"viability, T/C",[3],88%
same,"viability, T/C",[4],91.1%
same,"viability, T/C",[5],77.8%
same,"viability, T/C",[6],42.2%
same,"viability, T/C",[7],81.8%
same,"viability, T/C",[8],67.3%
same,"viability, T/C",[9],73.4%
same,"viability, T/C",[10],84.1%
same,"viability, T/C",[11],38.9%
same,"viability, T/C",[12],33.5%
same,"viability, T/C",[13],43.5%
same,"viability, T/C",[14],50.5%
same,"viability, T/C",[15],49.4%
same,"viability, T/C",[16],52.7%
same,"viability, T/C",[17],19%
same,"viability, T/C",[18],27.5%
same,"viability, T/C",[19],33.2%
same,"viability, T/C",[20],24.1%
same,"viability, T/C",[21],16.4%
same,"viability, T/C",[22],17%
same,"viability, T/C",[23],15.9%
same,"viability, T/C",[24],9.51%
same,"viability, T/C",[25],30.8%
same,"viability, T/C",[26],19.3%
same,"viability, T/C",[27],20.4%
same,"viability, T/C",[28],16.8%
same,"viability, T/C",[29],11.6%
same,"viability, T/C",[30],16.7%
